From patent US20250017906A1, “COMPOUNDS FOR USE IN TREATING GASTRIC CANCER” (BPGBio, Inc., priority 2021, published 2025)
Entries after “also recorded” stand apart in the source; their conditions may differ.

Assays:
HS746T tumors = test: Gastric carcinoma xenograft model: Hs 746T tumors in nude mice, tumor growth inhibition; format: in vivo; conditions: for % Tumor Growth Inhibition (% TGI) / tumor growth inhibition, mixed effect linear model of the tumor volumes on the last day of study: HS746T xenograft
Experimental: Hs 746T cell line is a gastric carcinoma epithelial cell type from stomach that were isolated from the metastatic site of left leg muscle. Hs 746T cell lines were implanted subcutaneously in nude mice. Tumors were allowed to grow. Once the average tumor volume reached the volume of 120 mm3, animals were randomized into four groups of vehicle control, 75 mg/kg, 100 mg/kg, and 150 mg/kg 2-(difluoromethoxy)-N-[[5-(2-methoxyphenyl)-1H-1,2,4-triazol-3-yl]methyl]benzamide with 10 animals per group. Methocel E3 Premium LV with 2% labrasol in Milli-Q water was used for vehicle control. 2-(difluoromethoxy)-N-[[5-(2-methoxyphenyl)-1H-1,2,4-triazol-3-yl]methyl]benzamide was prepared prior to each dosing in 2% labrasol dissolved in Milli-Q water. 2-(difluoromethoxy)-N-[[5-(2-methoxyphenyl)-1H-1,2,4-triazol-3-yl]methyl]benzamide was administered by oral gavage two times a day (BID). In this study there were 10 animals per each group. […] The mean tumor volume of each group over time and the growth of tumor in each individual animal is plotted below. For each individual animal of vehicle group TGI % was calculated based on the tumor growth inhibition of individual tumor at each given day of the study compared to the average of the group for that given day of the study. The P value was calculated for each group that was treated with 2-(difluoromethoxy)-N-[[5-(2-methoxyphenyl)-1H-1,2,4-triazol-3-yl]methyl]benzamide for each given day of the study by comparing the TGI of that day to the TGI of the vehicle group. This P value is different than what is provided in the CRO report which is the P value related to tumor volume not TGI %. P value was calculated by excel program using two-tailed distribution and two-sample equal variance (homoscedastic). ns P>0.05; * P<0.05; ** P<0.01; *** P<0.001; **** P<0.0001.

[1] = tested on: cyclin B1(CCNB1) and phospho histone H3(pHH3); test: Level of cyclin B1 and phospho histone H3 in HS746T xenograft tumors; format: in vivo, nude mice; conditions: 75-150 mg/kg (FIG. 2)
SNU5 tumors = test: Gastric carcinoma xenograft model: SNU-5 tumors in nude mice, tumor growth inhibition; format: in vivo; conditions: SNU-5 xenograft
Experimental: SNU-5 is derived from ascites of a patient with poorly differentiated carcinoma of the stomach. The patient had previously received chemotherapy including 5-fluorouracil, doxorubicin and mitomycin-C. This cell line is derived from metastatic site, ascites.
SNU-5 cell lines were implanted subcutaneously in nude mice. Tumors were allowed to grow. Once the average tumor volume reached the volume of 122 mm3, animals were randomized into three groups of vehicle control, 75 mg/kg and 150 mg/kg 2-(difluoromethoxy)-N-[[5-(2-methoxyphenyl)-1H-1,2,4-triazol-3-yl]methyl]benzamide with 12 animals per group. Methocel E3 Premium LV in Milli-Q water was used for vehicle control. A solid dispersion of 2-(difluoromethoxy)-N-[[5-(2-methoxyphenyl)-1H-1,2,4-triazol-3-yl]methyl]benzamide was prepared prior to each dosing in Milli-Q water. 2-(difluoromethoxy)-N-[[5-(2-methoxyphenyl)-1H-1,2,4-triazol-3-yl]methyl]benzamide was administered by oral gavage two times a day (BID). In this study there were 12 animals per each group. […] Animals that left the study prior to day 23 were eliminated from all calculations. The percentage of tumor growth inhibition (TGI %) was calculated for each individual tumor. The mean tumor volume of each group over time and the growth of tumor in each individual animal is plotted below. For each individual animal of vehicle group TGI % was calculated based on the tumor growth inhibition of individual tumor at each given day of the study compared to the average of the group for that given day of the study. The P value was calculated for each group that was treated with 2-(difluoromethoxy)-N-[[5-(2-methoxyphenyl)-1H-1,2,4-triazol-3-yl]methyl]benzamide for each given day of the study by comparing the TGI of that day to the TGI of the vehicle group. This P value is different than what is provided in the CRO report which is the P value related to tumor volume not TGI %. P value was calculated by excel program using two-tailed distribution and two-sample equal variance (homoscedastic). ns P>0.05; * P<0.05; ** P<0.01; *** P<0.001; **** P<0.0001.

[2] = tested on: cyclin B1 and phosphor histone H3; test: Level of cyclin B1 and phospho histone H3 in SNU-5 xenograft tumors; format: in vivo, nude mice; conditions: 75 and 150 mg/kg (FIG. 4)
[3] = Tolerability (body weight, survival) in HS746T xenograft study; format: in vivo; conditions: HS746T xenograft, 75, 100 and 150 mg/kg oral BID, 15 days
Experimental: Hs 746T cell line is a gastric carcinoma epithelial cell type from stomach that were isolated from the metastatic site of left leg muscle. Hs 746T cell lines were implanted subcutaneously in nude mice. Tumors were allowed to grow. Once the average tumor volume reached the volume of 120 mm3, animals were randomized into four groups of vehicle control, 75 mg/kg, 100 mg/kg, and 150 mg/kg 2-(difluoromethoxy)-N-[[5-(2-methoxyphenyl)-1H-1,2,4-triazol-3-yl]methyl]benzamide with 10 animals per group. Methocel E3 Premium LV with 2% labrasol in Milli-Q water was used for vehicle control. 2-(difluoromethoxy)-N-[[5-(2-methoxyphenyl)-1H-1,2,4-triazol-3-yl]methyl]benzamide was prepared prior to each dosing in 2% labrasol dissolved in Milli-Q water. […] For each individual animal of vehicle group TGI % was calculated based on the tumor growth inhibition of individual tumor at each given day of the study compared to the average of the group for that given day of the study. The P value was calculated for each group that was treated with 2-(difluoromethoxy)-N-[[5-(2-methoxyphenyl)-1H-1,2,4-triazol-3-yl]methyl]benzamide for each given day of the study by comparing the TGI of that day to the TGI of the vehicle group. […] P value was calculated by excel program using two-tailed distribution and two-sample equal variance (homoscedastic). ns P>0.05; * P<0.05; ** P<0.01; *** P<0.001; **** P<0.0001.

UBE2K = target: T1, UBE2K (Homo sapiens, UniProt P61086); conditions: poly-ubiquitination assays, FIG. 2 of U.S. Pat. No. 11,091,447; cited from earlier work
T1 sequence (P61086 1-200): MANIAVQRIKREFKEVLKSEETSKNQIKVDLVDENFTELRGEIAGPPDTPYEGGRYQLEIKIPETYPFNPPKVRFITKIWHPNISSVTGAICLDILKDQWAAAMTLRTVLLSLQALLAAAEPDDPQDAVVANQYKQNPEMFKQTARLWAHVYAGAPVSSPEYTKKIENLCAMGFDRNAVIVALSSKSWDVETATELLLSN

[4] = Tolerability (body weight, survival) in SNU-5 xenograft study; format: in vivo; conditions: oral BID, solid dispersion
Experimental: SNU-5 cell lines were implanted subcutaneously in nude mice. Tumors were allowed to grow. Once the average tumor volume reached the volume of 122 mm3, animals were randomized into three groups of vehicle control, 75 mg/kg and 150 mg/kg 2-(difluoromethoxy)-N-[[5-(2-methoxyphenyl)-1H-1,2,4-triazol-3-yl]methyl]benzamide with 12 animals per group. Methocel E3 Premium LV in Milli-Q water was used for vehicle control. A solid dispersion of 2-(difluoromethoxy)-N-[[5-(2-methoxyphenyl)-1H-1,2,4-triazol-3-yl]methyl]benzamide was prepared prior to each dosing in Milli-Q water. […] The percentage of tumor growth inhibition (TGI %) was calculated for each individual tumor. […] For each individual animal of vehicle group TGI % was calculated based on the tumor growth inhibition of individual tumor at each given day of the study compared to the average of the group for that given day of the study. The P value was calculated for each group that was treated with 2-(difluoromethoxy)-N-[[5-(2-methoxyphenyl)-1H-1,2,4-triazol-3-yl]methyl]benzamide for each given day of the study by comparing the TGI of that day to the TGI of the vehicle group. […] P value was calculated by excel program using two-tailed distribution and two-sample equal variance (homoscedastic). ns P>0.05; * P<0.05; ** P<0.01; *** P<0.001; **** P<0.0001.

With `COc1ccccc1-c1nc(CNC(=O)c2ccccc2OC(F)F)n[nH]1` [2-(difluoromethoxy)-N-[[5-(2-methoxyphenyl)-1H-1,2,4-triazol-3-yl]methyl]benzamide] as the compound, how does the “HS746T tumor growth inhibition (TGI)” value (HS746T tumors; 150 mg/kg in nude mice (summary, FIG. 1)) read?
Its value is “more than 70%”.

And the “% Tumor Growth Inhibition (% TGI)” value (HS746T tumors; 75 mg/kg oral BID, day 3)?
Its value is 47.2%.

And the “% Tumor Growth Inhibition (% TGI)” value (HS746T tumors; 75 mg/kg oral BID, day 5)?
Its value is 45.9%.

And the “% Tumor Growth Inhibition (% TGI)” value (HS746T tumors; 75 mg/kg oral BID, day 8)?
Its value is 46.3%.

What about the “% Tumor Growth Inhibition (% TGI)” value (HS746T tumors; 75 mg/kg oral BID, day 10) of the same compound?
Its value is 46.3%.

And the “% Tumor Growth Inhibition (% TGI)” value (HS746T tumors; 75 mg/kg oral BID, day 12)?
The value was 36.8%.

What about the “% Tumor Growth Inhibition (% TGI)” value (HS746T tumors; 75 mg/kg oral BID, day 15) of the same compound?
The value was 35.7%.

What about the “tumor growth inhibition, mixed effect linear model of the tumor volumes on the last day of study” value (“tumor growth inhibition … of study” for short) (HS746T tumors; 75 mg/kg oral BID) of the same compound?
Its value is 60.3%.

What about the “% Tumor Growth Inhibition (% TGI)” value (HS746T tumors; 100 mg/kg oral BID, day 3) of the same compound?
The value was 65.8%.

What about the “% Tumor Growth Inhibition (% TGI)” value (HS746T tumors; 100 mg/kg oral BID, day 5) of the same compound?
The value was 56.2%.

And the “% Tumor Growth Inhibition (% TGI)” value (HS746T tumors; 100 mg/kg oral BID, day 8)?
Its value is 57.7%.

And the “% Tumor Growth Inhibition (% TGI)” value (HS746T tumors; 100 mg/kg oral BID, day 10)?
Its value is 59.4%.

What about the “% Tumor Growth Inhibition (% TGI)” value (HS746T tumors; 100 mg/kg oral BID, day 12) of the same compound?
Its value is 49.3%.

And the “% Tumor Growth Inhibition (% TGI)” value (HS746T tumors; 100 mg/kg oral BID, day 15)?
The value was 52.4%.

And the “tumor growth inhibition … of study” value (HS746T tumors; 100 mg/kg oral BID)?
Its value is 71.2%.

What about the “% Tumor Growth Inhibition (% TGI)” value (HS746T tumors; 150 mg/kg oral BID, day 3) of the same compound?
Its value is 98.3%.

What about the “% Tumor Growth Inhibition (% TGI)” value (HS746T tumors; 150 mg/kg oral BID, day 5) of the same compound?
The value was 93.1%.

What about the “% Tumor Growth Inhibition (% TGI)” value (HS746T tumors; 150 mg/kg oral BID, day 8) of the same compound?
The value was 89.8%.

And the “% Tumor Growth Inhibition (% TGI)” value (HS746T tumors; 150 mg/kg oral BID, day 10)?
Its value is 84.2%.

And the “% Tumor Growth Inhibition (% TGI)” value (HS746T tumors; 150 mg/kg oral BID, day 12)?
Its value is 72.9%.

What about the “% Tumor Growth Inhibition (% TGI)” value (HS746T tumors; 150 mg/kg oral BID, day 15) of the same compound?
The value was 74.3%.

And the “tumor growth inhibition … of study” value (HS746T tumors; 150 mg/kg oral BID)?
Its value is 85.3%.

What about the “cyclinB1 in tumor tissues” value [1] of the same compound?
The value was “dose-dependent increase”.

What about the “phosphor histone H3 in tumor tissues” value [1] of the same compound?
The value was “dose-dependent increase”.

What about the “% Tumor Growth Inhibition (% TGI)” value (SNU5 tumors; 75 mg/kg oral BID, day 2) of the same compound?
Its value is 79%.

And the “% Tumor Growth Inhibition (% TGI)” value (SNU5 tumors; 75 mg/kg oral BID, day 5)?
The value was 41%.

And the “% Tumor Growth Inhibition (% TGI)” value (SNU5 tumors; 75 mg/kg oral BID, day 7)?
The value was 36%.

And the “% Tumor Growth Inhibition (% TGI)” value (SNU5 tumors; 75 mg/kg oral BID, day 9)?
Its value is 49%.

And the “% Tumor Growth Inhibition (% TGI)” value (SNU5 tumors; 75 mg/kg oral BID, day 12)?
The value was 51%.

And the “% Tumor Growth Inhibition (% TGI)” value (SNU5 tumors; 75 mg/kg oral BID, day 14)?
The value was 47%.

And the “% Tumor Growth Inhibition (% TGI)” value (SNU5 tumors; 75 mg/kg oral BID, day 16)?
The value was 56%.

What about the “% Tumor Growth Inhibition (% TGI)” value (SNU5 tumors; 75 mg/kg oral BID, day 19) of the same compound?
Its value is 47%.

What about the “% Tumor Growth Inhibition (% TGI)” value (SNU5 tumors; 75 mg/kg oral BID, day 21) of the same compound?
Its value is 40%.

And the tumor growth inhibition (SNU5 tumors; 150 mg/kg oral BID (FIG. 3))?
Its tumor growth inhibition is 64%.

And the “% Tumor Growth Inhibition (% TGI)” value (SNU5 tumors; 150 mg/kg oral BID, day 2)?
The value was 129%.

And the “% Tumor Growth Inhibition (% TGI)” value (SNU5 tumors; 150 mg/kg oral BID, day 5)?
Its value is 70%.

And the “% Tumor Growth Inhibition (% TGI)” value (SNU5 tumors; 150 mg/kg oral BID, day 7)?
The value was 58%.

What about the “% Tumor Growth Inhibition (% TGI)” value (SNU5 tumors; 150 mg/kg oral BID, day 9) of the same compound?
The value was 64%.

And the “% Tumor Growth Inhibition (% TGI)” value (SNU5 tumors; 150 mg/kg oral BID, day 12)?
Its value is 63%.

What about the “% Tumor Growth Inhibition (% TGI)” value (SNU5 tumors; 150 mg/kg oral BID, day 14) of the same compound?
Its value is 54%.

And the “% Tumor Growth Inhibition (% TGI)” value (SNU5 tumors; 150 mg/kg oral BID, day 16)?
Its value is 64%.

What about the “% Tumor Growth Inhibition (% TGI)” value (SNU5 tumors; 150 mg/kg oral BID, day 19) of the same compound?
The value was 52%.

And the “% Tumor Growth Inhibition (% TGI)” value (SNU5 tumors; 150 mg/kg oral BID, day 21)?
The value was 49%.

What about the “cyclin B1 in tumor tissues” value [2] of the same compound?
Its value is “dose dependent increase; also recorded: dose-dependent increase”.

What about the “phosphor histone H3 in tumor tissues” value [2] of the same compound?
The value was “dose dependent increase; also recorded: dose-dependent increase”.

What about the “effect on body weight” value [3] of the same compound?
The value was “without any significant effect on body weight”.

What about the “effect on mono-ubiquitinated UBE2K” value (UBE2K) of the same compound?
The value was “stabilize mono-ubiquitinated UBE2K”.

What about the “effect on body weight” value [4] of the same compound?
Its value is “without any significant effect on body weight”.
